Assay results published in ChEMBL document CHEMBL1137487, “Synthesis and biological activities of glycosphingolipid analogues from marine sponge Aplysinella rhax” (Bioorg Med Chem Lett, 2007).
The source made the active and inactive calls. The calls are words filed in the database; no cut-off is given here.

What follows are molecules tested on J774.1 (assay: Inhibition of LPS-stimulated nitric oxide production in J774.1 cells). Conditions: Mus musculus.
Assay type: functional, cell-based

Row | SMILES | Activity
1 | CCCCCCCCCCCCCCC(CCCCCCCCCCCCCC)CO[C@@H]1O[C@H](CO)[C@@H](O[C@@H]2O[C@H](CO)[C@H](O)[C@H](O)[C@H]2NC(C)=O)[C@H](O[C@H]2O[C@H](C)[C@H](O)[C@H](O)[C@H]2O)[C@H]1NC(C)=O | Active
2 | CCCCCCCCCCCCCCC(CCCCCCCCCCCCCC)CO[C@@H]1O[C@H](CO)[C@@H](O[C@@H]2O[C@H](CO)[C@H](O)[C@H](O)[C@H]2NC(C)=O)[C@H](O[C@H]2O[C@@H](C)[C@@H](O)[C@@H](O)[C@@H]2O)[C@H]1NC(C)=O (stereo in doubt) | Active
3 | CCCCCCCCCCCCCCC(CCCCCCCCCCCCCC)CO[C@@H]1O[C@H](CO)[C@@H](O[C@@H]2O[C@H](CO)[C@H](O)[C@H](O)[C@H]2O)[C@H](O[C@H]2O[C@H](C)[C@H](O)[C@H](O)[C@H]2O)[C@H]1NC(C)=O | Active
4 | CC(=O)N[C@H]1[C@H](O[C@H]2[C@H](O[C@H]3O[C@H](C)[C@H](O)[C@H](O)[C@H]3O)[C@@H](NC(C)=O)[C@H](OCC[Si](C)(C)C)O[C@@H]2CO)O[C@H](CO)[C@H](O)[C@@H]1O | Active
